From US20080200405A1, “Drug Resistance Reversal In Neoplastic Disease” (priority 2007, published 2008)

Columns and labels:
Angiogenesis in CAM = experiment: Neovascularization on the CAM (Inhibition of Angiogenesis in CAM); assay type: in vivo, chicken; conditions: 30 ug
Procedure: In vivo neovascularization was examined by the method previously described by Auerbach et al. (J. Dev. Biol. 41:391-394 (1974)). Ten-day old chicken embryos were purchased from Spafas, Inc. (Preston, Conn.) and were incubated at 37° C. with 55% relative humidity. In the dark, with the aid of a candling lamp, a small hole was punctured in the shell concealing the air sac with a hypodermic needle. A second hole was punctured in the shell on the broadside of the egg directly over an […] portion of the embryonic membrane, as observed during candling. An artificial air sac was created beneath the second hole by applying gentle vacuum to the first hole using a small rubber squeeze bulb. The vacuum caused the chorioallantoic membrane (CAM) to separate from the shell. A window, approximately 1.0 cm^2, was cut in the shell over the dropped CAM with the use of a small crafts grinding wheel (Dremel, Division of Emerson Electric Company Racine, Wis.). The window allowed direct access to the underlying CAM. A pro-angiogenic agent was added to induce new blood vessel branches on the CAM of 10-day old embryos. […] Louis, Mo.) in a solution (95% ethanol and water). The disks were subsequently air dried under sterile conditions. The disks were then suspended in PBS (Phosphate Buffered Saline) and placed on growing CAMs. […] For inducing angiogenesis, sterile filter disks were saturated with bFGF (1 μg/ml) (Life Technologies, Gaithersburg, Md.) or other pro-angiogenesis factors and control disks were saturated with PBS without Calcium and Magnesium. Control disks were saturated with PBS without Calcium and Magnesium. Using sterile forceps one filter/CAM was placed from the window. The window was sealed with Highland brand transparent tape. After 24-48 hr, 10-25 ul of test agent was injected intravenously or added topically into the CAM membrane. Eight-Ten eggs/treatment group were used. CAM tissue directly beneath filter disk was harvested from embryos treated 48 hours prior with compound or control. Tissues were washed three times with PBS. Sections were placed in a 35-mm petri dish (Nalge Nunc, Rochester, N.Y.) and examined under a SV6 stereomicroscope (Karl Zeiss, Thornwood, N.Y.) at 50× magnification. […] Digital images of CAM sections from Petri dish were collected using a 3-CCD color video camera system (Toshiba America, New York, N.Y.). These images were analyzed using Image-Pro Plus software (Media Cybernetics, Silver Spring, Md.). The number of branch points in blood vessels within the circular region superimposed to the area of a filter disk was counted for each section. […] Tissues were washed three times with PBS. Sections were placed in a 35-mm Petri dish (Nalge Nunc; Rochester, N.Y.) and were examined under a SV6 stereomicroscope (Karl Zeiss; Thornwood, N.Y.) at 50× magnification. Digital images of CAM sections adjacent to filters were collected using a 3-CCD color video camera system (Toshiba America; New York, N.Y.) and analyzed with the Image-Pro Plus software (Media Cybernetics; Silver Spring, Md.). The number of vessel branch points contained in a circular region equal to the area of a filter disk was counted for each section. Percent inhibition data are expressed as the quotient of the experimental value minus the negative control value divided by the difference between the positive control value and the negative control value. One image was counted in each CAM preparation, and findings from eight CAM preparations were analyzed for each treatment condition. In addition, each experiment was performed three times. The resulting angiogenesis index is the mean ±SEM (Standard Error of Measurement) of new branch points in each set of treatment. Statistical analysis of blood vessel branching patterns are performed by 1-way analysis of variance (ANOVA) comparing experimental with corresponding control groups.

[1] = In vitro stability of OT-551 in rat plasma; assay type: in vitro ADME
Procedure: (§1) The active metabolite of OT-551 (Cyclopropanecarboxylic acid 1-hydroxy-2,2,6,6-tetramethyl-piperidin-4-yl ester) is TP-H. The objective of this analysis was to determine the in vitro half-life of OT-551 in rat, rabbit, dog, and human plasma under standardized incubation conditions.
(§2) OT-551 was incubated with pooled rat, rabbit, dog, and human plasma for various times under standardized incubation conditions. Pre-labeled tubes containing pooled plasma from rats, rabbits, dogs, and humans were pre-incubated in a shaking 37° C. water bath. A OT-551 solution was added to the tubes at a final concentration of 1000 ng/mL. Time zero samples (n=5) were immediately removed and transferred into tubes containing a stabilizer solution (DTPA, acetylcysteine and ascorbic acid), the LC/MS/MS assay internal standard and methanol. […] The tubes were vortexed, placed on ice, followed by centrifugation. One hundred-μL aliquots of the supernatant were transferred into HPLC sample vials. Additional tubes (n=5 at each time point) were incubated for 5, 10, 20, 30, 60, 120, and 240 minutes at 37° C. and thereafter processed. The amount of OT-551 and TP-H in each incubated sample was quantified using validated LC/MS/MS assays.

[2] = In vitro stability of OT-551 in rabbit plasma; assay type: in vitro ADME
Procedure: as §1, §2

[3] = Single-dose 10-minute intravenous infusion toxicokinetics of OT-551; assay type: in vivo, Sprague-Dawley rats
Procedure: Blood for toxicokinetic evaluations was collected at pre-determined time points during and after the infusion. Plasma samples were analyzed for OT-551 and TP-H using validated LC/MS/MS assays. Descriptive toxicokinetic parameters were determined by standard model independent methods (Gilbaldi and Perrier, 1982) based on the plasma concentration-time data. […] The plasma concentrations were rounded to the nearest tenth of a ng/mL before the calculations. […] Nominal time points were used for all calculations. Since there was no apparent gender difference in the plasma concentrations of OT-551 and TP-H, the data for male and female rats at each sampling time point were pooled.

[4] = Sprague-Dawley rats, 10-minute iv infusion of OT-551 10 mg/kg

For CC1(C)CC(O)CC(C)(C)N1O [TEMPOL-H], the “Inhibition of Angiogenesis in CAM, % Inhibition” value (Angiogenesis in CAM) was 43 ± 10%, the “Concentrations (ng/mL) of TP-H in Rat Plasma” value (“Concentrations … in Rat Plasma” below) ([1]; OT-551 incubation time 0 min) was 10.23 ± 1.59 ng/mL and the “Concentrations … in Rat Plasma” value ([1]; OT-551 incubation time 5 min) was 30.47 ± 1.65 ng/mL. The “Concentrations … in Rat Plasma” value ([1]; OT-551 incubation time 10 min) was 50.91 ± 2.11 ng/mL, the “Concentrations … in Rat Plasma” value ([1]; OT-551 incubation time 20 min) was 86.30 ± 3.30 ng/mL and the “Concentrations … in Rat Plasma” value ([1]; OT-551 incubation time 30 min) was 119.63 ± 7.08 ng/mL. For the same compound, the “Concentrations … in Rat Plasma” value ([1]; OT-551 incubation time 60 min) was 201.94 ± 4.19 ng/mL, the “Concentrations … in Rat Plasma” value ([1]; OT-551 incubation time 120 min) was 304.66 ± 7.27 ng/mL and the “Concentrations … in Rat Plasma” value ([1]; OT-551 incubation time 240 min) was 362.66 ± 7.50 ng/mL. The “Concentrations (ng/mL) of TP-H in Rabbit Plasma” value ([2]; OT-551 incubation time 0 min) was 270.55 ± 35.45 ng/mL, the “Concentrations (ng/mL) of TP-H in Rabbit Plasma” value ([2]; OT-551 incubation time 5 min) was 587.17 ± 21.99 ng/mL and the “Concentrations (ng/mL) of TP-H in Rabbit Plasma” value ([2]; OT-551 incubation time 10 min) was 604.21 ± 21.99 ng/mL. The “Concentrations (ng/mL) of TP-H in Rabbit Plasma” value ([2]; OT-551 incubation time 20 min) was 590.06 ± 40.97 ng/mL, the “Concentrations (ng/mL) of TP-H in Rabbit Plasma” value ([2]; OT-551 incubation time 30 min) was 533.01 ± 117.40 ng/mL and the “Concentrations (ng/mL) of TP-H in Rabbit Plasma” value ([2]; OT-551 incubation time 60 min) was 569.19 ± 32.96 ng/mL. For the same compound, the “Concentrations (ng/mL) of TP-H in Rabbit Plasma” value ([2]; OT-551 incubation time 120 min) was 525.63 ± 10.31 ng/mL, the “Concentrations (ng/mL) of TP-H in Rabbit Plasma” value ([2]; OT-551 incubation time 240 min) was 477.54 ± 40.95 ng/mL and the “peak plasma concentration of TP-H at the end of the OT-551 infusion” value (shortened to “peak plasma concentration of TP-H”) ([3]; 10 mg/kg OT-551) was 2481.7 ng/mL. The “plasma levels of TP-H at 4 hr post infusion” value ([3]; 10 mg/kg OT-551) was “still quantifiable”, the “terminal elimination half-life of TP-H” value ([3]; 10 mg/kg OT-551) was 24 min and the “peak plasma concentration of TP-H” value ([3]; 30 mg/kg OT-551) was 8337.7 ng/mL. For the same compound, the “peak plasma concentration of TP-H” value ([3]; 100 mg/kg OT-551) was 29020.8 ng/mL, the “peak plasma concentration of TP-H” value ([3]; 200 mg/kg OT-551) was 60802.1 ng/mL and the “levels of TP-H four hours after terminating the infusion relative to concentrations immediately after terminating the infusion” value ([3]; 30, 100 and 200 mg/kg OT-551) was “less than 1%”. For the same compound, the “Mean ± SD Plasma Concentrations of TP-H” value ([3]; OT-551 10 mg/kg iv infusion, 1.167 hr) was 204.7 ± 85.6 ng/mL, the “Mean ± SD Plasma Concentrations of TP-H” value ([3]; OT-551 10 mg/kg iv infusion, 2.167 hr) was 25.2 ± 24.0 ng/mL and the “Mean ± SD Plasma Concentrations of TP-H” value ([3]; OT-551 10 mg/kg iv infusion, 4.167 hr) was 4.2 ± 10.3 ng/mL. The “Mean ± SD Plasma Concentrations of TP-H” value ([3]; OT-551 30 mg/kg iv infusion, 4.167 hr, n = 5) was 53.8 ± 29.7 ng/mL, the “Mean ± SD Plasma Concentrations of TP-H” value ([3]; OT-551 100 mg/kg iv infusion, 4.167 hr) was 160.0 ± 97.5 ng/mL and the “Mean ± SD Plasma Concentrations of TP-H” value ([3]; OT-551 200 mg/kg iv infusion, 4.167 hr) was 524.5 ± 237.0 ng/mL. The “AUC(0-4.167 hr) of TP-H” value [3, 4] was 1694.8 ng·h/mL, the “Cmax of TP-H” value [3, 4] was 2481.7 ng/mL and the “T½ of TP-H” value ([3]; Sprague-Dawley rats, 10-minute iv infusion of OT-551 10 mg/kg, elimination half-life) was 24 min. For the same compound, the “AUC of TP-H” value ([3]; Sprague-Dawley rats, 10-minute iv infusion of OT-551 10 mg/kg, to time infinity) was 1697.5 ng·h/mL, the “Cmax of TP-H” value ([3]; Sprague-Dawley rats, 10-minute iv infusion of OT-551 30 mg/kg) was 8337.7 ng/mL and the “Cmax of TP-H” value ([3]; Sprague-Dawley rats, 10-minute iv infusion of OT-551 100 mg/kg) was 29020.8 ng/mL. For the same compound, the “Cmax of TP-H” value ([3]; Sprague-Dawley rats, 10-minute iv infusion of OT-551 200 mg/kg) was 60802.2 ng/mL, the “Mean ± SD Plasma Concentrations of TP-H” value ([3]; Sprague-Dawley rats, single 10-minute iv infusion of OT-551 10 mg/kg, 0.167 hr from start of infusion) was 2481.7 ± 325.8 ng/mL and the “Mean ± SD Plasma Concentrations of TP-H” value ([3]; Sprague-Dawley rats, single 10-minute iv infusion of OT-551 30 mg/kg, 0.167 hr, n = 5) was 8337.7 ± 2099.5 ng/mL. For the same compound, the “Mean ± SD Plasma Concentrations of TP-H” value ([3]; Sprague-Dawley rats, single 10-minute iv infusion of OT-551 100 mg/kg, 0.167 hr) was 29020.8 ± 11713.7 ng/mL, the “Mean ± SD Plasma Concentrations of TP-H” value ([3]; Sprague-Dawley rats, single 10-minute iv infusion of OT-551 200 mg/kg, 0.167 hr) was 60802.2 ± 8922.5 ng/mL and the “Tmax of TP-H” value ([3]; rat, in vivo, iv) was 10 min.
